pIC50: −log10 of the molar value.
How the values were obtained:
SH—SY5Y cells = assay: Cytotoxicity test (CCK-8), neurotoxicity; type: cell-based; settings: Homo sapiens, 72 h
Protocol: HepG-2 and SH—SY5Y cells were placed in 10 cm dish and cultured at 37° C., 5% CO2 in a cell incubator. Trypsin was used to digest and resuspend cells and cells were counted. The cells were transferred to 96-well plate with 8000 cells in a well (100 μl/well). A serial of gradient concentration dilutions of compound with 2-fold dilution were prepared, and the system was 100 μL/well. The supernatant of cell culture system in the 96-well plate was removed on the first day, and fresh-prepared drug concentration system was add into culture plate wells (duplicate wells were set). The cells were cultured at 37° C., 5% CO2 in a cell incubator for 72 h. After the cell culture was completed, the supernatant of cell culture system was removed from 96-well plate, 100 μl of detection solution containing 10% CCK-8 medium was added into each well, and the cells were cultured at 37° C., 5% CO2 in a cell incubator for 1 h. Microplate reader was used to measure the absorbance at 450 nm. Data was processed to calculate cytotoxicity, and IC50 was calculated by GraphPad Prism. […]
A (Dosing): the absorbance of wells containing cells, CCK-8 solution and drug solution.
A (control): the absorbance of wells containing medium and CCK-8 solution and without cells.
A (0 Dosing): the absorbance of wells containing cells and CCK-8 solution but without drug solution.

C57BL/6 mice, ICS model = assay: mice ICS model (fibromyalgia), mechanical allodynia test; type: in vivo, mouse; settings: 10 mg/kg oral
Protocol: After completely dissolved, the duloxetine was administered orally. The volume of administration was 5 ml/kg.
10 mg/kg compound Ic-1:17 mg of compound Ic-1 was weighed, dissolved in saline and diluted to 8.5 mL. After completely dissolved, the compound Ic-1 was administered orally. The volume of administration was 5 ml/kg.
Male C57BL/6 mice weighed 18-22 g were selected at the beginning of experiment. Each cage had 4 mice which were allowed to feed and drink water freely. Each experimental group had 12 mice, and the experimental mice were labeled by tail labeling method.
Day 0: At 4:30 pm, the mice were put in a plexiglass box with stainless steel mesh, and then the plexiglass box was put in cold environment (4±2° C.) overnight. The mice were allowed to feed freely and drink, and agar was used to replace water.
Day 1: At 10:00 am, the mice were delivered to room temperature (24±2° C.) environment for 30 min, and then the mice were delivered to cold environment for 30 min. The above steps were repeated until 4:[…], and the mice were put in cold environment overnight.
Day 2: the operation on day 1 was repeated.
Day 3: the mice were taken out from cold environment at 10:00 am.
The compounds were administered orally according to the schedule of experiment, and the dosage was 10 mg/kg.
On the fourth day after modeling, the pre-administration mechanical allodynia test was performed on the animals. Animals with PWT value greater than 0.5 g were excluded and were not used for experiments. On the fifth day after modeling, the animals were tested for mechanical allodynia at 0.5 h, 1 h, and 2 h after the administration of compounds. […]
During the test, rapid withdrawal of animal claw was recorded as pain response. When the test fiber was removed from animal skin, the withdrawal of animal claw was also recorded as pain response. If animal moved, the pain response was not recorded, and the test was repeated. […] The maximum strength of tested fiber was 4.17 (1.4 g). • The test results were recorded in Table 4 below, wherein pain response was recorded as X and no pain response was recorded as O. […]

CNCC[C@H](Oc1cccc2ccccc12)c1cccs1 [Duloxetine (S configuration), Duloxetine]
pIC50 (SH—SY5Y cells): 4.55 | PWT (g) Mean ± SD (C57BL/6 mice, ICS model; 0.5 h after administration): 0.416 ± 0.140 g | PWT (g) Mean ± SD (C57BL/6 mice, ICS model; 1 h after administration): 0.648 ± 0.155 g | PWT (g) Mean ± SD (C57BL/6 mice, ICS model; 2 h after administration): 0.530 ± 0.235 g
